Data set [1] in a line: physchem. The settings on record: for solubility: aqueous buffer. The source says: The active agent may be any active agent suitable to treat the desired condition. […] Examples include, but are not limited to, acetazolamide, dorzolamide HCl, timolol maleate, and ethacrynic acid sodium salt.
For data set [2] the following is noted: topical ocular use; cited from earlier work.

Values after ≈ are worked out from the molar mass of the structure shown. Where a name gives a salt, the structure may show the parent alone. Bounds are passed on as bounds.

`O=C(O)CCCCCC[C@@H]1[C@@H](CC[C@@H](O)c2cc3ccccc3s2)[C@H](O)C[C@@H]1O` [AR-102 free acid, 7-((1R,2R,3R,5S)-2-((R)-3-(benzo[b]thiophen-2-yl)-3-hydroxypropyl)-3,5-dihydroxycyclopentyl)heptanoic acid]: in data set [1], the solubility class result is on record as “moderate solubility”.
The same measure, in the same setting: in the case of `C[C@@H](N)c1ccc(C(=O)Nc2ccnc3[nH]ccc23)cc1` [Y-39983 Free Base] it was “Moderately Soluble”.
In general, solubility refers to the concentration that dissolves in the medium under given conditions. Read a low solubility as little dissolved substance. In data set [1], `CC(=O)Nc1nnc(S(N)(=O)=O)s1` [acetazolamide] gave a solubility of over 1000 µg/mL.
Turning to `CCNC(=O)CCC/C=C\C[C@@H]1[C@@H](/C=C/[C@@H](O)CCc2ccccc2)[C@H](O)C[C@@H]1O` [bimatoprost], the solubility class entry in data set [1] is “low solubility”.
Regarding `Brc1c(NC2=NCCN2)ccc2nccnc12` [brimonidine free base], the “solubility in PBS” value in data set [1] was found to be 360 µg/mL (≈ 1230 µM).
Consider `C[C@@H]1C[C@H]2[C@@H]3CCC4=CC(=O)C=C[C@]4(C)[C@@]3(F)[C@@H](O)C[C@]2(C)[C@@]1(O)C(=O)COP(=O)(O)O` [dexamethasone sodium phosphate], for which the solubility class result in data set [1] was “high solubility”.
Take `C[C@@H]1C[C@H]2[C@@H]3CCC4=CC(=O)C=C[C@]4(C)[C@@]3(F)[C@@H](O)C[C@]2(C)[C@@]1(O)C(=O)CO` [dexamethasone]: in data set [1], the solubility class result is “low solubility” and the solubility is under 300 µg/mL.
Taken in the same sequence, the figures for `CCN[C@H]1C[C@H](C)S(=O)(=O)c2sc(S(N)(=O)=O)cc21` [dorzolamide HCl] were “high solubility” and over 1000 µg/mL.
For `C=C(CC)C(=O)c1ccc(OCC(=O)O)c(Cl)c1Cl` [ethacrynic acid sodium salt], in that order: “high solubility” and over 1000 µg/mL.
Take `O=C(O)CCC/C=C\C[C@@H]1[C@@H](CC[C@@H](O)CCc2ccccc2)[C@H](O)C[C@@H]1O` [latanoprost free acid]: the “solubility in PBS” value in data set [1] amounted to 800 µg/mL (≈ 2050 µM).
Take `CC(C)OC(=O)CCC/C=C\C[C@@H]1[C@@H](CC[C@@H](O)CCc2ccccc2)[C@H](O)C[C@@H]1O` [latanoprost isopropyl ester]: in data set [1], the solubility class entry is recorded as “low solubility” and the solubility is under 300 µg/mL. Also, the topical effective concentration in data set [2] is listed as 0.05 milligrams/mL.
In turn, `CC[C@H](C)C(=O)O[C@H]1C[C@@H](C)C=C2C=C[C@H](C)[C@H](CC[C@@H]3C[C@@H](O)CC(=O)O3)[C@H]21` [lovastatin] showed a solubility in data set [1] of under 300 µg/mL.
For the molecule `CC(C)(C)NC[C@H](O)COc1nsnc1N1CCOCC1` [timolol maleate], in data set [1], the solubility class entry is “high solubility” and the solubility is over 1000 µg/mL.
Taken in the same sequence, the figures for `CC(C)OC(=O)CCC/C=C\C[C@@H]1[C@@H](/C=C/[C@@H](O)COc2cccc(C(F)(F)F)c2)[C@H](O)C[C@@H]1O` [travoprost isopropyl ester] were “low solubility” and under 300 µg/mL.
For the molecule brimonidine tartrate, the solubility class result in data set [1] (PBS at pH=7.2-7.4, listed as brimonidine D-tartrate salt) was “high solubility”. In addition, the solubility in water in data set [1] (in water at pH 7.7) worked out at 600 µg/mL.

The record behind these values is patent publication US8765166B2, “Drug delivery devices for delivery of ocular therapeutic agents” (Aerie Pharmaceuticals, Inc., priority 2010, dated 2014).
